In patent publication US8563013B2, “Systems and methods for delivering a fluid drug” (Janssen Biotech, Inc., priority 2007, dated 2013):

Test: Light-induced degradation of a carbidopa-containing fluid formulation
Assay type: physicochemical
Conditions: fluid formulation having carbidopa; visible light with wavelengths in the range of about 400 nm to about 550 nm
Excerpt: In some embodiments, the reservoir, and/or other portions of a dosing container, can be adapted to hinder exposure of a contained fluid from portions of a light spectrum, which can be capable of degrading or rendering one or more components of a fluid ineffective. […] Accordingly, if a container is adapted to hinder a carbidopa-containing fluid from being exposed to at least wavelengths in about the 400 nm to about 550 nm range, preservation of the carbidopa can be enhanced. As well, other embodiments can utilize other techniques, in combination or alone, which effectively reduce degradation of a carbidopa-containing fluid in the presence of visible light, such as adding a dye to the carbidopa-containing fluid (e.g., FD&C Yellow 6) to absorb the undesired light components. Other techniques, including ones familiar to those skilled in the art, can also be used.

degradation on exposure to light: found to degrade
SMILES: C[C@@](Cc1ccc(O)c(O)c1)(NN)C(=O)O [carbidopa]
